The subject of data set [1] is endogenous suppression of T cells caused by cancer lesions. Kind of data set: NSAID codelivered for contrasuppression in the NCM regimen. The data set is classed as in vivo, human. The settings on record: for effectiveness as NSAID for blocking endogenous suppression of T cells: codelivery with low dose cyclophosphamide and NCM. The text has this:
It is preferable to block endogenous suppression of T cells, such as caused by various cancer lesions. Blocking is effected by the codelivery of low dose cyclophosphamide and a nonsteroidal anti-inflammatory drug (NSAID). The NSAID of choice is indomethacin. […] Side effects of NSAIDs are to be aggressively treated with […] and a prostaglandin E analog. Zinc and multivitamins are useful agents to help restore T cell immunity. Treatment with contrasuppression and zinc without the NCM is ineffective.

The next data set concerns T lymphocytes. Kind of data set: Cytokine induction by OKT-3 and/or PHA plus Ciprofloxacin, cells incubated in flasks. The data set is classed as cell-based, human. An excerpt: The buffy coat white cells of human blood from multiple HIV-negative hepatitis virus-negative donors is collected. In an alternative embodiment, animals are the cell source for veterinary uses. The cells from the donors are pooled and layered on ficoll hypaque gradients (Pharmacia) to yield lymphocytes free of neutrophils and erythrocytes. Alternative methods could be used that would result in the same starting lymphocyte population as are known in the art.
The lymphocytes are washed and distributed in X vivo-10 media (Whittaker Bioproducts) to surface activated cell culture flasks for selection of cell subsets (MICROCELLECTOR™ T-25 Cell Culture Flasks), which contain immobilized stimulants, i.e., mitogens like PHA. In one set of experiments, X vivo-15 and X vivo-20 media were used as indicated. The immobilization process for the stimulants is as described by the manufacturer for immobilizing various substances for panning procedures, i.e., separating cells, in the flasks. Alternatively, the lymphocytes are exposed to stimulants e.g., PHA for 2-4 hours then washed three times.
The cells are incubated for 24 to 48 hours in X vivo-10 media with 80 μg/ml Ciprofloxacin (Miles Lab) at 37° in a CO2/air incubator. […] Generally, the HSA is used at 0.1 to 0.5% (weight by volume). Following incubation, the supernatants are poured off and collected. Human serum albumin (HSA) may be added to stabilize further the interleukins if HSA-free media is used for generations. The supernatants are store at 4° C. to −70°.

Another data set has as its system thymocyte and splenocyte. The conditions noted are these: in vivo thymosin α1 5 μg/animal/day, NCM 50 units IL-2 equivalence; FIGS. 21, 22; cited from earlier work.

With `Cc1ccc(-c2cc(C(F)(F)F)nn2-c2ccc(S(N)(=O)=O)cc2)cc1` [Celebrex®], in data set [1], the “effectiveness as NSAID for blocking endogenous suppression of T cells” value (“effectiveness as NSAID” below) is given as “less effective”.
Consider `CC(C)Cc1ccc(C(C)C(=O)O)cc1` (stereo not shown) [Ibuprofen], for which the histological responses result in data set [1] (as NSAID of the regimen) is “characteristic of a TH2 rather than TH1 mediated response”. Besides, in data set [1], the “effectiveness as NSAID” value was “effective”.
On to `CS(=O)(=O)c1ccc(C2=C(c3ccccc3)C(=O)OC2)cc1` [Vioxx®], for which the toxicity entry in data set [1] (as NSAID of the regimen) was “causing gastritis in many patients”. Also, in data set [1], the “effectiveness as NSAID” value is given as “less effective”.
Take `COc1ccc2c(c1)c(CC(=O)O)c(C)n2C(=O)c1ccc(Cl)cc1` [indomethacin]: the toxicity result in data set [1] (as NSAID of the regimen) is listed as “arguably the most toxic”. The “effectiveness as NSAID” value in data set [1] is “most effective NSAID”.
“OKT-3: monoclonal antibody (Ortho) which induces T lymphocytes to proliferate and produce interleukins”: in the data set with T lymphocytes, the GM-CSF was found to be 75 pg/mL, the IFN-Y came out at 11280 pg/mL, the IL-1-β was found to be 1125 pg/mL and the IL-6 was determined as 1980 pg/mL. In the data set with T lymphocytes, the TNF-α was 2500 pg/mL.
As to Thymosin α1, the “thymocyte and splenocyte in vitro responses to media, rIL-1, rIL-2 and NCM” value in the data set on thymocyte and splenocyte was “increase many of the responses”.
